Test results taken from PubChem BioAssay AID2060621 (Molecular Pharmacology Branch, DTP, NCI, 2025).
Values joined by “and” are separate entries in the source; they are usually repeats but may differ in a detail not shown here. Identical values can stand only once.

Tested on: 324938-238-R-J1-PDC complex spheroids viability
Assay: Anticancer human tumor 324938-238-R-J1-PDC patient-derived bladder carcinoma cell line growth inhibition [CLK]
Conditions: for viability, T/C: stronger effect = lower value
From the text: A high-throughput screen of multi-cell type tumor spheroids was designed to identify active combinations of […] and targeted small molecules. Complex spheroids include a stromal component modeled by human endothelial cells (HUVEC) and fibroblasts modeled by human mesenchymal stem cells (MSCs). The concentration ranges selected for each drug and investigational agent were based upon clinically achievable concentrations if the clinical Cmax of the agent was known.
Compounds. The drugs and investigational agents: cirtuvivint (SM08502; NSC835563), CC-671 (NSC850746), vemurafenib (NSC761431), tapotoclax (NSC804041), sotorasib (NSC818433), adagrasib (NSC831453), MRTX-1133 (NSC836407), BAY2416964 (NSC825713), copanlisib (NSC816437), inavolisib (NSC800729), abemaciclib (NSC768073), osimertinib (NSC779217), entinostat (NSC756642), eltanexor (KPT-8602, NSC794443), venetoclax (NSC766270), ceralasertib (NSC777638), bortezomib (NSC756655), olaparib (NSC753686), talazoparib (NSC767125), alisertib (NSC759677), peposertib (NSC802822), gemcitabine (NSC613327), 5-fluorouracil (NSC19893), SN-38 (NSC673596), oxaliplatin (NSC266046), paclitaxel (NSC125973), and doxorubicin (NSC123127), were obtained from the National Cancer Institute (NCI) Developmental Therapeutics Program Chemical Repository. The FDA-approved anticancer drug set is available from the Developmental Therapeutics Program at https://dtp.cancer.gov/organization/dscb/obtaining/available plates.htm. […] The stock solutions were prepared in dimethyl sulfoxide (DMSO, Sigma-Aldrich, St. Louis, MO, cat. D2650), except for the platinum complexes which were prepared in saline (Quality Biological, Gaithersburg, MD, cat. 114-055-101), at 800-fold the tested concentration and stored at -70 degrees C prior to their use. All drugs and investigational agents were tested over a range starting from a high concentration at or near the clinical Cmax and decreasing in half-log increments. If the clinical Cmax for an agent had not been determined, the highest concentration tested was 10 microM.
Cell Culture. All cells were maintained in an incubator at 37 degrees C and 5% CO2 with 95% humidity. The PDC lines were cultured according to standard operating procedures established by the NCI PDMR. Briefly, all PDCs were thawed and cultured in Matrigel-coated flasks prepared with a working solution of 1X Ham's F-12 nutrient mix, without supplementation (Invitrogen, Waltham, MA, cat. 11765054), 100 U/mL penicillin-streptomycin (Invitrogen, cat. 15140122), and 2.5% Matrigel (Corning Inc., Corning, NY, cat. 354248) for the first three passages. The 947758-054-R-J2-PDC line was cultured in 6B/Colon 1A media, which includes advanced DMEM/F-12 (Thermo Fisher Scientific, cat. 12634028), 10 mM HEPES (Thermo Fisher Scientific, cat. 15630080), 1X GlutaMAX supplement (Thermo Fisher Scientific, cat. 35050061), 0.1 mg/mL primocin (InvivoGen, cat. ant-pm-2), 10% defined fetal bovine serum, heat inactivated (HyClone Laboratories Inc., cat. SH30070.03HI), 1.25 mM N-Acetyl-L-cysteine (Sigma-Aldrich, cat. A9165), 10 mM nicotinamide (Sigma-Aldrich, cat. N0636), 1X B-27 supplement (Thermo Fisher Scientific, cat. 17504044), 1X N-2 supplement (Thermo Fisher Scientific, cat. 17502048), and 10 microM Y-27632 dihydrochloride (Tocris Bioscience, cat. 1254). The 876862-298-R-J1-PDC was cultured in 6E media, which includes all 6B/Colon 1A media components plus 50% L-WRN conditioned media (ATCC, cat. CRL-3276), 50 ng/mL recombinant human EGF recombinant protein (hEGF; Thermo Fisher Scientific, cat. PHG0311), 10 ng/mL recombinant human fibroblast growth factor 10 (hGFG-10; PeproTech, cat. 100-26), 1 ng/mL recombinant human fibroblast growth factor 2 (hFGF-2; PeproTech, cat. 100-18B), and 1 µM prostaglandin E2 (PGE2; Tocris, cat. 2296). The 227483-062-R1-J1-PDC line was cultured in Panc media, containing all 6E components except hFGF-2, with the addition of 500 nM SB-431542 (Selleckchem, cat. S1067) and 10 nM gastrin (Tocris, cat. 3006). […]
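Further: viability read after seven days of drug exposure.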
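Wherever viability, T/C is given: 100% = DMSO vehicle control wells.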

Structure (SMILES): CC1(C)CCC(CN2CCN(c3ccc(C(=O)NS(=O)(=O)c4ccc(NCC5CCOCC5)c([N+](=O)[O-])c4)c(Oc4cnc5[nH]ccc5c4)c3)CC2)=C(c2ccc(Cl)cc2)C1 + CN1CCN(c2cc(C(=O)Nc3cc4cc(-c5cnn(C)c5)ccc4cn3)ccn2)CC1
- IC50 (curve of first compound, second compound 0.0316 µM): 6720 nM
- IC50 (curve of first compound, second compound 0.1 µM): 1480 nM
- IC50 (curve of first compound, second compound 0.316 µM): < 31.6 nM
- IC50 (curve of first compound, second compound 1 µM): < 31.6 nM
- IC50 (curve of first compound, second compound 3.16 µM): < 31.6 nM
- IC50 (curve of first compound, second compound 10 µM): < 31.6 nM
- viability, T/C (second compound 0.0316 µM, first compound 0.0316 µM): 79.6%
- viability, T/C (second compound 0.0316 µM, first compound 0.1 µM): 90.2%
- viability, T/C (second compound 0.0316 µM, first compound 0.316 µM): 80.3%
- viability, T/C (second compound 0.0316 µM, first compound 1 µM): 81%
- viability, T/C (second compound 0.0316 µM, first compound 3.16 µM): 82.8%
- viability, T/C (second compound 0.0316 µM, first compound 10 µM): 32.7%
- viability, T/C (second compound 0.1 µM, first compound 0.0316 µM): 51.9%
- viability, T/C (second compound 0.1 µM, first compound 0.1 µM): 55.4%
- viability, T/C (second compound 0.1 µM, first compound 0.316 µM): 47.4%
- viability, T/C (second compound 0.1 µM, first compound 1 µM): 54.9%
- viability, T/C (second compound 0.1 µM, first compound 3.16 µM): 46.2%
- viability, T/C (second compound 0.1 µM, first compound 10 µM): 26.4%
- viability, T/C (second compound 0.316 µM, first compound 0.0316 µM): 25.2%
- viability, T/C (second compound 0.316 µM, first compound 0.1 µM): 22.9%
- viability, T/C (second compound 0.316 µM, first compound 0.316 µM): 19%
- viability, T/C (second compound 0.316 µM, first compound 1 µM): 24.8%
- viability, T/C (second compound 0.316 µM, first compound 3.16 µM): 21.5%
- viability, T/C (second compound 0.316 µM, first compound 10 µM): 11.6%
- viability, T/C (second compound 1 µM, first compound 0.0316 µM): 1.53%
- viability, T/C (second compound 1 µM, first compound 0.1 µM): 1.38%
- viability, T/C (second compound 1 µM, first compound 0.316 µM): 1.4%
- viability, T/C (second compound 1 µM, first compound 1 µM): 1.48%
- viability, T/C (second compound 1 µM, first compound 3.16 µM): 1.08%
- viability, T/C (second compound 1 µM, first compound 10 µM): 0.34%
- viability, T/C (second compound 3.16 µM, first compound 0.0316 µM): 0.12%
- viability, T/C (second compound 3.16 µM, first compound 0.1 µM): 0.21%
- viability, T/C (second compound 3.16 µM, first compound 0.316 µM): 0.14%
- viability, T/C (second compound 3.16 µM, first compound 1 µM): 0.14%
- viability, T/C (second compound 3.16 µM, first compound 3.16 µM): 0.11%
- viability, T/C (second compound 3.16 µM, first compound 10 µM): 0.16%
- viability, T/C (second compound 10 µM, first compound 0.0316 µM): 0.12%
- viability, T/C (second compound 10 µM, first compound 0.1 µM): 0.16%
- viability, T/C (second compound 10 µM, first compound 0.316 µM): 0.16%
- viability, T/C (second compound 10 µM, first compound 1 µM): 0.14%
- viability, T/C (second compound 10 µM, first compound 3.16 µM): 0.19%
- viability, T/C (second compound 10 µM, first compound 10 µM): 0.19%

Structure (SMILES): C=CC(=O)Nc1cc(Nc2nccc(-c3cn(C)c4ccccc34)n2)c(OC)cc1N(C)CCN(C)C
- viability, T/C (compound 0.000949 µM): 71.7% and 84%
- viability, T/C (compound 0.003 µM): 79.8% and 82.5%
- viability, T/C (compound 0.00949 µM): 62.2% and 65.2%
- viability, T/C (compound 0.03 µM): 69.3% and 61.8%
- viability, T/C (compound 0.0949 µM): 36.1% and 45.5%
- viability, T/C (compound 0.3 µM): 22.2% and 22.7%
- IC50 (curve of compound): 58.3 nM and 61.8 nM
